For one assay, the system named is Fruit and shoot borer. The assay can be described thus: Trial of the combination Chlorantraniliprole+Novaluron+Bifenthrin on Fruit and shoot borer in paddy. The conditions noted are these: solo. Format: in vivo. How it is done:
Trials were conducted to test the efficacy of the combination of Chlorantraniliprole+Novaluron+Bifenthrin on Fruit and shoot borer in paddy: […]

For a further assay, the system named is white ears. In words: Trial of the combination Chlorantraniliprole+Novaluron+Bifenthrin on white ears in paddy. Format: in vivo. To be noted: solo. How it is done: Trials were conducted to test the efficacy of the combination of Chlorantraniliprole+Novaluron+Bifenthrin on white ears in paddy: […]

The structures appear in SMILES notation.

For the compound `O=C(NC(=O)c1c(F)cccc1F)Nc1ccc(OC(F)(F)C(F)OC(F)(F)F)c(Cl)c1` (stereo not drawn) [Novaluron], the “Percent control Fruit and shoot borer” value in the assay on Fruit and shoot borer (3 DAA, dose 100 gm ai/ha) is 64.3%; in the assay on Fruit and shoot borer (7 DAA, dose 100 gm ai/ha), 75%; with Fruit and shoot borer (10 DAA, dose 100 gm ai/ha), 68.3%; with Fruit and shoot borer (14 DAA, dose 100 gm ai/ha) it was 64.3%; with white ears (3 DAA, dose 100 gm ai/ha) it was 5%; with white ears (7 DAA, dose 100 gm ai/ha) it was 6%. Further, the “Percent control Fruit and shoot borer” value is on record as 5.9% with white ears (10 DAA, dose 100 gm ai/ha) and 4.9% with white ears (14 DAA, dose 100 gm ai/ha).
For `CNC(=O)c1cc(Cl)cc(C)c1NC(=O)c1cc(Br)nn1-c1ncccc1Cl` [Chlorantraniliprole, 3-bromo-4′-chloro-1-(3-chloro-2-pyridyl)-2′-methyl-6′-(methylcarbamoyl)pyrazole-5-carboxanilide], the “Percent control Fruit and shoot borer” value worked out at 79.3% in the assay with Fruit and shoot borer (3 DAA, dose 30 gm ai/ha); 90% in the assay on Fruit and shoot borer (7 DAA, dose 30 gm ai/ha); 88.3% in the assay on Fruit and shoot borer (10 DAA, dose 30 gm ai/ha); 78.4% in the assay with Fruit and shoot borer (14 DAA, dose 30 gm ai/ha); 5% with white ears (3 DAA, dose 30 gm ai/ha); 6% in the assay on white ears (7 DAA, dose 30 gm ai/ha). Moreover, the “Percent control Fruit and shoot borer” value was found to be 5.9% in the assay with white ears (10 DAA, dose 30 gm ai/ha) and 4.9% in the assay with white ears (14 DAA, dose 30 gm ai/ha).
Regarding `Cc1c(COC(=O)[C@@H]2[C@H](/C=C(\Cl)C(F)(F)F)C2(C)C)cccc1-c1ccccc1` (racemic) [Bifenthrin], the “Percent control Fruit and shoot borer” value with Fruit and shoot borer (3 DAA, dose 60 gm ai/ha) is given as 54.3%; in the assay with Fruit and shoot borer (7 DAA, dose 60 gm ai/ha), 71%; with Fruit and shoot borer (10 DAA, dose 60 gm ai/ha) it was 64.3%; with Fruit and shoot borer (14 DAA, dose 60 gm ai/ha), 58.3%; in the assay on white ears (3 DAA, dose 60 gm ai/ha), 80%; in the assay on white ears (7 DAA, dose 60 gm ai/ha), 79%. Also, the “Percent control Fruit and shoot borer” value worked out at 55% in the assay on white ears (10 DAA, dose 60 gm ai/ha) and 38% in the assay on white ears (14 DAA, dose 60 gm ai/ha).

Values taken from patent US12161117B2, “Agrochemical combinations” (UPL LTD, priority 2018, dated 2024).
